Data as given in publication PMC3493566 (2012).
*1 amine or outer side, *2 acyl side, *3 side chain or, on linkers, in order; H or OH if unused. Where a SMILES comes first, the peptide text is derived from it. Bridges are numbered along the chain shown (N, C = ends). Roman numbers before positions name the chains, in order. [ ]: non-standard residue; d: D form. Actinocin(9to1) = Cc1c2oc3c(C)ccc(C(=O)[*:1])c3nc-2c(C(=O)[*:2])c(N)c1=O; NMeV = CN[C@H](C(=O)O)C(C)C; Sar = CNCC(=O)O

Columns and labels:
[1] = test system: d(TTTGCAAA) duplex (DNA, duplex) TTTGCAAA; test: UV melting at 260 nm; conditions: Na+ (20 mM sodium cacodylate); pH 7.3, 4 µM duplex, no spermine; ACTD concentration not stated
[2] = test system: 5'-biotin-labeled hairpin DNA duplex (DNA, hairpin) AAAGCTTTTGTAAAGCTTT; test: SPR (BIAcore), ka/kd; conditions: 50 mM NaCl; 20 mM Tris-HCl pH 7.3, no spermine

Cc1c2oc3c(C)ccc(C(=O)N[C@@H]4C(=O)N[C@H](C(C)C)C(=O)N5CCC[C@H]5C(=O)N(C)CC(=O)N(C)[C@@H](C(C)C)C(=O)O[C@@H]4C)c3nc-2c(C(=O)N[C@@H]2C(=O)N[C@H](C(C)C)C(=O)N3CCC[C@H]3C(=O)N(C)CC(=O)N(C)[C@@H](C(C)C)C(=O)O[C@@H]2C)c(N)c1=O (I: T[dV]P[Sar][NMeV] / II: T[dV]P[Sar][NMeV]; ester I:1-I:C, II:1-II:C; linker I:N-II:N via Actinocin(9to1))
Tm [1]: 6.3 °C | Ka [2]: 2.48 ± 0.17 × 10^6 M^-1
